# In article PMC6409085, “Three odorant-binding proteins are involved in the behavioral response of Sogatella furcifera to rice plant volatiles” (PeerJ, 2019):
# Several values for one entry are separate records, joined by “and”; a condition that tells them apart may be missing. Equal entries are not always repeated.
# Tests used:
# [1] = target: SfurOBP1 (Sogatella furcifera, UniProt V5T8N5); assay: biochemical; format: binding; conditions: for Fluorescence competitive binding assay, fluorescence intensity: OBP1, three replicate columns
# In short: (§1)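 Fluorescence competitive binding used 2.0 µM SfurOBP and 2.0 µM 1-NPN reporter in 50 mM Tris-HCl, pH 7.4, with odorants at 2-20 µM. Fluorescence was read 2 min after adding the odorant (excitation 337 nm, emission 390-490 nm), in triplicate. Ki was calculated from IC50 as IC50/(1 + [1-NPN]/K1-NPN).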
# [2] = target: SfurOBP11 (Sogatella furcifera, UniProt V5T6E3); assay: biochemical; format: binding
# In short: as §1
# [3] = target: SfurOBP2 (Sogatella furcifera, UniProt V5T759); assay: biochemical; format: binding
# In short: as §1
# [4] = target: SfurOBP3 (Sogatella furcifera, UniProt V5T818); assay: biochemical; format: binding; conditions: for Fluorescence competitive binding assay, fluorescence intensity: OBP3, three replicate columns
# In short: as §1
# [5] = test system: S. furcifera adults; assay: Y-tube olfactometer behavioral trials; format: in vivo, Sogatella furcifera; conditions: odorant 50 µL/L vs hexane; adults
# Procedure: To test the effect of the rice odorants on the behavior of S. furcifera adults, a glass Y-tube olfactometer (inner diameter 2.0 cm, stem 13 cm, arms 10 cm, angle of arms 60°) according to the previously described ([Wang et al., 2014b]) was employed. An airtight cubic box (70 by 45 by 30 cm) was used to position Y-tube, and the Y-tube was lighted by a 30-W filament lamp 25 cm above it. Air that filtered through activated charcoal and humidified with doubly distilled water was pumped in both arms at a flow rate of 300 mL/min. Two filter paper strips (10 by 1 cm) containing 100 µL odorant source (50 µL/L) and 100 µL control hexane were placed in two holding chambers in the front of the olfactometer, respectively. A S. furcifera adult (2 days after emergence, starved for 0.5 h) was randomly chosen and placed in the stem of the Y-tube. Each insect was given 10 min to choose between the two arms of the Y-tube, the choice was noted if the planthopper reached one-half of the arms’ lengths and stayed in the arm for more than 1 min. Besides, S. furcifera was considered as having no orientation preference. Forty-five individuals were used for each compound, each insect used only once. And the dual-choice experiment was done in an environmentally controlled room (25 ± 1 °C and 50% RH). A Chi-squared test was used to analyze the behavioral assay data by using SPSS19.0 (SPSS Inc., Chicago, IL, USA) software.
# SfurOBP1, sequence (V5T8N5 entry or part of it): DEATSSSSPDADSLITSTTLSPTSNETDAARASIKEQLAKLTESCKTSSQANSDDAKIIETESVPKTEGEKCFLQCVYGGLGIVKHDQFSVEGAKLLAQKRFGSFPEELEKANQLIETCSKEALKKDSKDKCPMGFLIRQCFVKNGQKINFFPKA
# SfurOBP11, sequence (V5T6E3 entry or part of it): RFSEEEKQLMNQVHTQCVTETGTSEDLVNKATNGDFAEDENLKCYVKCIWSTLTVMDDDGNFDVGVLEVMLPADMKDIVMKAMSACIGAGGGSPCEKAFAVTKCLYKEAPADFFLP
# SfurOBP3, sequence (V5T818 entry or part of it): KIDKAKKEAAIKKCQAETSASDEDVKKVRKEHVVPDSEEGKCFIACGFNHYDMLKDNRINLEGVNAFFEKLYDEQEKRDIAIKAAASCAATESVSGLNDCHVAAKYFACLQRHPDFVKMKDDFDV
# SfurOBP2, sequence (V5T759 entry or part of it): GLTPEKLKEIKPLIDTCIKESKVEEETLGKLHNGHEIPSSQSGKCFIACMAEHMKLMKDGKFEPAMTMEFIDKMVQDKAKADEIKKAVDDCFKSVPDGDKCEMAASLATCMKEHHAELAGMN
substance,measurement,setting,value
2-heptanonol,"Fluorescence competitive binding assay, fluorescence intensity",[1]; ligand concentration 2 (μM),5887 and 5646 and 5767
same,"Fluorescence competitive binding assay, fluorescence intensity",[1]; ligand concentration 4 (μM),7288 and 7577 and 6996
same,"Fluorescence competitive binding assay, fluorescence intensity",[1]; ligand concentration 6 (μM),5995 and 5950 and 6027
same,"Fluorescence competitive binding assay, fluorescence intensity",[1]; ligand concentration 8 (μM),7072 and 6140 and 5704
same,"Fluorescence competitive binding assay, fluorescence intensity",[1]; ligand concentration 10 (μM),8690 and 6215 and 5653
same,"Fluorescence competitive binding assay, fluorescence intensity",[1]; ligand concentration 12 (μM),7048 and 7677 and 6537
same,"Fluorescence competitive binding assay, fluorescence intensity",[1]; ligand concentration 14 (μM),6232 and 8602 and 7115
same,"Fluorescence competitive binding assay, fluorescence intensity",[1]; ligand concentration 16 (μM),5533 and 5298 and 5778
same,"Fluorescence competitive binding assay, fluorescence intensity",[1]; ligand concentration 18 (μM),5895 and 6061 and 6136
same,"Fluorescence competitive binding assay, fluorescence intensity",[1]; ligand concentration 20 (μM),5784 and 5580 and 5212
same,IC50,"[1]; SfurOBP1, protein and 1-NPN both 2.0 µM, competitor 2-20 µM, read-out: IC50",> 20 µM
same,IC50,"[2]; SfurOBP11, protein and 1-NPN both 2.0 µM, competitor 2-20 µM, read-out: IC50",> 20 µM
same,"Fluorescence intensity, fluorescence competitive binding assay, OBP11","[2]; ligand concentration 2, replicate 1",32214
same,"Fluorescence intensity, fluorescence competitive binding assay, OBP11","[2]; ligand concentration 2, replicate 2",33277
same,"Fluorescence intensity, fluorescence competitive binding assay, OBP11","[2]; ligand concentration 2, replicate 3",35354
same,"Fluorescence intensity, fluorescence competitive binding assay, OBP11","[2]; ligand concentration 4, replicate 1",33125
same,"Fluorescence intensity, fluorescence competitive binding assay, OBP11","[2]; ligand concentration 4, replicate 2",35054
same,"Fluorescence intensity, fluorescence competitive binding assay, OBP11","[2]; ligand concentration 4, replicate 3",33696
same,"Fluorescence intensity, fluorescence competitive binding assay, OBP11","[2]; ligand concentration 6, replicate 1",31772
same,"Fluorescence intensity, fluorescence competitive binding assay, OBP11","[2]; ligand concentration 6, replicate 2",31091
same,"Fluorescence intensity, fluorescence competitive binding assay, OBP11","[2]; ligand concentration 6, replicate 3",33532
same,"Fluorescence intensity, fluorescence competitive binding assay, OBP11","[2]; ligand concentration 8, replicate 1",28812
same,"Fluorescence intensity, fluorescence competitive binding assay, OBP11","[2]; ligand concentration 8, replicate 2",31104
same,"Fluorescence intensity, fluorescence competitive binding assay, OBP11","[2]; ligand concentration 8, replicate 3",31825
same,"Fluorescence intensity, fluorescence competitive binding assay, OBP11","[2]; ligand concentration 10, replicate 1",28521
same,"Fluorescence intensity, fluorescence competitive binding assay, OBP11","[2]; ligand concentration 10, replicate 2",30054
same,"Fluorescence intensity, fluorescence competitive binding assay, OBP11","[2]; ligand concentration 10, replicate 3",29747
same,"Fluorescence intensity, fluorescence competitive binding assay, OBP11","[2]; ligand concentration 12, replicate 1",26176
same,"Fluorescence intensity, fluorescence competitive binding assay, OBP11","[2]; ligand concentration 12, replicate 2",26507
same,"Fluorescence intensity, fluorescence competitive binding assay, OBP11","[2]; ligand concentration 12, replicate 3",26325
same,"Fluorescence intensity, fluorescence competitive binding assay, OBP11","[2]; ligand concentration 14, replicate 1",24809
same,"Fluorescence intensity, fluorescence competitive binding assay, OBP11","[2]; ligand concentration 14, replicate 2",27546
same,"Fluorescence intensity, fluorescence competitive binding assay, OBP11","[2]; ligand concentration 14, replicate 3",28489
same,"Fluorescence intensity, fluorescence competitive binding assay, OBP11","[2]; ligand concentration 16, replicate 1",22169
same,"Fluorescence intensity, fluorescence competitive binding assay, OBP11","[2]; ligand concentration 16, replicate 2",21457
same,"Fluorescence intensity, fluorescence competitive binding assay, OBP11","[2]; ligand concentration 16, replicate 3",24839
same,"Fluorescence intensity, fluorescence competitive binding assay, OBP11","[2]; ligand concentration 18, replicate 1",29523
same,"Fluorescence intensity, fluorescence competitive binding assay, OBP11","[2]; ligand concentration 18, replicate 2",28673
same,"Fluorescence intensity, fluorescence competitive binding assay, OBP11","[2]; ligand concentration 18, replicate 3",27420
same,"Fluorescence intensity, fluorescence competitive binding assay, OBP11","[2]; ligand concentration 20, replicate 1",25385
same,"Fluorescence intensity, fluorescence competitive binding assay, OBP11","[2]; ligand concentration 20, replicate 2",25884
same,"Fluorescence intensity, fluorescence competitive binding assay, OBP11","[2]; ligand concentration 20, replicate 3",25605
same,IC50,"[3]; SfurOBP2, protein and 1-NPN both 2.0 µM, competitor 2-20 µM, read-out: IC50",> 20 µM
same,"Fluorescence competitive binding assay, OBP2 (raw fluorescence reading)","[3]; ligand concentration 2 (unit not given), replicate column 1 of 3",18612
same,"Fluorescence competitive binding assay, OBP2 (raw fluorescence reading)","[3]; ligand concentration 2 (unit not given), replicate column 2 of 3",18747
same,"Fluorescence competitive binding assay, OBP2 (raw fluorescence reading)","[3]; ligand concentration 2 (unit not given), replicate column 3 of 3",19681
same,"Fluorescence competitive binding assay, OBP2 (raw fluorescence reading)","[3]; ligand concentration 4 (unit not given), replicate column 1 of 3",19302
same,"Fluorescence competitive binding assay, OBP2 (raw fluorescence reading)","[3]; ligand concentration 4 (unit not given), replicate column 2 of 3",19993
same,"Fluorescence competitive binding assay, OBP2 (raw fluorescence reading)","[3]; ligand concentration 4 (unit not given), replicate column 3 of 3",20683
same,"Fluorescence competitive binding assay, OBP2 (raw fluorescence reading)","[3]; ligand concentration 6 (unit not given), replicate column 1 of 3",18811
same,"Fluorescence competitive binding assay, OBP2 (raw fluorescence reading)","[3]; ligand concentration 6 (unit not given), replicate column 2 of 3",18736
same,"Fluorescence competitive binding assay, OBP2 (raw fluorescence reading)","[3]; ligand concentration 6 (unit not given), replicate column 3 of 3",18774
same,"Fluorescence competitive binding assay, OBP2 (raw fluorescence reading)","[3]; ligand concentration 8 (unit not given), replicate column 1 of 3",16468
same,"Fluorescence competitive binding assay, OBP2 (raw fluorescence reading)","[3]; ligand concentration 8 (unit not given), replicate column 2 of 3",16720
same,"Fluorescence competitive binding assay, OBP2 (raw fluorescence reading)","[3]; ligand concentration 8 (unit not given), replicate column 3 of 3",16981
same,"Fluorescence competitive binding assay, OBP2 (raw fluorescence reading)","[3]; ligand concentration 10 (unit not given), replicate column 1 of 3",16986
same,"Fluorescence competitive binding assay, OBP2 (raw fluorescence reading)","[3]; ligand concentration 10 (unit not given), replicate column 2 of 3",17111
same,"Fluorescence competitive binding assay, OBP2 (raw fluorescence reading)","[3]; ligand concentration 10 (unit not given), replicate column 3 of 3",16240
same,"Fluorescence competitive binding assay, OBP2 (raw fluorescence reading)","[3]; ligand concentration 12 (unit not given), replicate column 1 of 3",16820
same,"Fluorescence competitive binding assay, OBP2 (raw fluorescence reading)","[3]; ligand concentration 12 (unit not given), replicate column 2 of 3",17596
same,"Fluorescence competitive binding assay, OBP2 (raw fluorescence reading)","[3]; ligand concentration 12 (unit not given), replicate column 3 of 3",18083
same,"Fluorescence competitive binding assay, OBP2 (raw fluorescence reading)","[3]; ligand concentration 14 (unit not given), replicate column 1 of 3",17387
same,"Fluorescence competitive binding assay, OBP2 (raw fluorescence reading)","[3]; ligand concentration 14 (unit not given), replicate column 2 of 3",16676
same,"Fluorescence competitive binding assay, OBP2 (raw fluorescence reading)","[3]; ligand concentration 14 (unit not given), replicate column 3 of 3",18097
same,"Fluorescence competitive binding assay, OBP2 (raw fluorescence reading)","[3]; ligand concentration 16 (unit not given), replicate column 1 of 3",16472
same,"Fluorescence competitive binding assay, OBP2 (raw fluorescence reading)","[3]; ligand concentration 16 (unit not given), replicate column 2 of 3",16454
same,"Fluorescence competitive binding assay, OBP2 (raw fluorescence reading)","[3]; ligand concentration 16 (unit not given), replicate column 3 of 3",17500
same,"Fluorescence competitive binding assay, OBP2 (raw fluorescence reading)","[3]; ligand concentration 18 (unit not given), replicate column 1 of 3",16574
same,"Fluorescence competitive binding assay, OBP2 (raw fluorescence reading)","[3]; ligand concentration 18 (unit not given), replicate column 2 of 3",16302
same,"Fluorescence competitive binding assay, OBP2 (raw fluorescence reading)","[3]; ligand concentration 18 (unit not given), replicate column 3 of 3",16787
same,"Fluorescence competitive binding assay, OBP2 (raw fluorescence reading)","[3]; ligand concentration 20 (unit not given), replicate column 1 of 3",15630
same,"Fluorescence competitive binding assay, OBP2 (raw fluorescence reading)","[3]; ligand concentration 20 (unit not given), replicate column 2 of 3",15665
same,"Fluorescence competitive binding assay, OBP2 (raw fluorescence reading)","[3]; ligand concentration 20 (unit not given), replicate column 3 of 3",15648
same,"Fluorescence competitive binding assay, fluorescence intensity",[4]; ligand concentration 2,45232 and 45869 and 44594
same,"Fluorescence competitive binding assay, fluorescence intensity",[4]; ligand concentration 4,45996 and 44453 and 43020
same,"Fluorescence competitive binding assay, fluorescence intensity",[4]; ligand concentration 6,47391 and 47743 and 47567
same,"Fluorescence competitive binding assay, fluorescence intensity",[4]; ligand concentration 8,48801 and 50407 and 49604
same,"Fluorescence competitive binding assay, fluorescence intensity",[4]; ligand concentration 10,51610 and 62768 and 47878
same,"Fluorescence competitive binding assay, fluorescence intensity",[4]; ligand concentration 12,54498 and 52011 and 51877
same,"Fluorescence competitive binding assay, fluorescence intensity",[4]; ligand concentration 14,42842 (2×) and 42142
same,"Fluorescence competitive binding assay, fluorescence intensity",[4]; ligand concentration 16,41166 and 44357 and 42754
same,"Fluorescence competitive binding assay, fluorescence intensity",[4]; ligand concentration 18,42621 and 43724 and 41536
same,"Fluorescence competitive binding assay, fluorescence intensity",[4]; ligand concentration 20,45786 and 37456 and 39383
same,IC50,"[4]; SfurOBP3, protein and 1-NPN both 2.0 µM, competitor 2-20 µM, read-out: IC50",> 20 µM
same,number of insects choosing hexane arm,[5],13
same,number of insects choosing volatilies arm,[5],16
same,number of insects failed (no choice),[5],13
